Test system: OCI-LY3 cells
Experiment: Resazurin cell viability (proliferation) assay in OCI-LY3 DLBCL cells
Format: cell-based
Conditions: Homo sapiens, OCI-LY3 cells (BTK independent), 72 h, 50% growth inhibition vs vehicle, read-out: OCI-LY3 Prol GI50
Method in brief: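 Cells were seeded at 1×10^4 per well and dosed 3 h later: 8-point 1:4 dilutions from 10 μM (OCI-LY3), in triplicate, 72 h at 37 °C. Resazurin (13 μg/ml final) was added for the last 2 h and fluorescence read at 530/600 nm. GI50 is relative to DMSO vehicle, typically from ≥2 independent experiments.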

SMILES	GI50 [µM]
Cc1ccc(C(=O)N2CCC3(CCN(CCc4ccc(-c5cc6c(-c7cc(F)cc(NC(=O)c8ccc(C(C)(C)O)cc8F)c7C)ncnc6[nH]5)cc4)CC3)CC2)cc1N1CCC(=O)NC1=O [Compound 5, N-(3-(6-(4-(2-(9-(3-(2,4-Dioxotetrahydropyrimidin-1(2H)-yl)-4-methylbenzoyl)-3,9-diazaspiro[5.5]undecan-3-yl)ethyl)phenyl)-7H-pyrrolo[2,3-d]pyrimidin-4-yl)-5-fluoro-2-methylphenyl)-2-fluoro-4-(2-hydroxypropan-2-yl)benzamide]	6.55
COc1ccc(C(=O)NCCN2CCOC3(CCN(Cc4ccc(-c5cc6c(-c7cc(F)cc(NC(=O)c8ccc(C(C)(C)O)cc8F)c7C)ncnc6[nH]5)cc4)CC3)C2)cc1N1CCC(=O)NC1=O [Compound 39, N-(3-(6-(4-((4-(2-(3-(2,4-dioxotetrahydropyrimidin-1(2H)-yl)-4-methoxybenzamido)ethyl)-1-oxa-4,9-diazaspiro[5.5]undecan-9-yl)methyl)phenyl)-7H-pyrrolo[2,3-d]pyrimidin-4-yl)-5-fluoro-2-methylphenyl)-2-fluoro-4-(2-hydroxypropan-2-yl)benzamide]	7.16
COc1ccc(C(=O)N2CCN(CCCCNCc3ccc(-c4cc5c(-c6cc(F)cc(NC(=O)c7ccc(C(C)(C)O)cc7F)c6C)ncnc5[nH]4)cc3)CC2)cc1N1CCC(=O)NC1=O [Compound 40, N-(3-(6-(4-(((4-(4-(3-(2,4-dioxotetrahydropyrimidin-1(2H)-yl)-4-methoxybenzoyl)piperazin-1-yl)butyl)amino)methyl)phenyl)-7H-pyrrolo[2,3-d]pyrimidin-4-yl)-5-fluoro-2-methylphenyl)-2-fluoro-4-(2-hydroxypropan-2-yl)benzamide]	> 10
Cc1ccc(C(=O)N(C)CCCCCNCc2ccc(-c3cc4c(-c5cc(F)cc(NC(=O)c6ccc(C(C)(C)O)cc6F)c5C)ncnc4[nH]3)cc2)cc1N1CCC(=O)NC1=O [Compound 30, 3-(2,4-Dioxotetrahydropyrimidin-1(2H)-yl)-N-(5-((4-(4-(5-fluoro-3-(2-fluoro-4-(2-hydroxypropan-2-yl)benzamido)-2-methylphenyl)-7H-pyrrolo[2,3-d]pyrimidin-6-yl)benzyl)amino)pentyl)-N,4-dimethylbenzamide]	> 10
COc1ccc(C(=O)N2CCC(OC3CCN(Cc4ccc(-c5cc6c(-c7cc(F)cc(NC(=O)c8ccc(C(C)(C)O)cc8F)c7C)ncnc6[nH]5)cc4)CC3)CC2)cc1N1CCC(=O)NC1=O [Compound 8, N-(3-(6-(4-((4-((1-(3-(2,4-dioxotetrahydropyrimidin-1(2H)-yl)-4-methoxybenzoyl)piperidin-4-yl)oxyl)piperidin-1-yl)methyl)phenyl)-7H-pyrrolo[2,3-d]pyrimidin-4-yl)-5-fluoro-2-methylphenyl)-2-fluoro-4-(2-hydroxypropan-2-yl)benzamide]	4.85
Cc1c(NC(=O)c2ccc(C(C)(C)O)cc2F)cc(F)cc1-c1ncnc2[nH]c(-c3ccc(CN4CCC5(CC4)CCN(C(=O)c4ccc(F)c(N6CCC(=O)NC6=O)c4)CC5)cc3)cc12 [Compound 14, N-(3-(6-(4-((9-(3-(2,4-Dioxotetrahydropyrimidin-1(2H)-yl)-4-fluorobenzoyl)-3,9-diazaspiro[5.5]undecan-3-yl)methyl)phenyl)-7H-pyrrolo[2.3-d]pyrimidin-4-yl)-5-fluoro-2-methylphenyl)-2-fluoro-4-(2-hydroxypropan-2-yl)benzamide]	5.98
Cc1cc(F)c(C(=O)NCCCCCNCc2ccc(-c3cc4c(-c5cc(F)cc(NC(=O)c6ccc(C(C)(C)O)cc6F)c5C)ncnc4[nH]3)cc2)cc1N1CCC(=O)NC1=O [Compound 29, 5-(2,4-Dioxotetrahydropyrimidin-1(2H)-yl)-2-fluoro-N—(S-((4-(4-(5-fluoro-3-(2-fluoro-4-(2-hydroxypropan-2-yl)benzamido)-2-methylphenyl)-7H-pyrrolo[2,3-d]pyrimidin-6-yl)benzyl)amino)pentyl)-4-methylbenzamide]	8.62
CCOc1ccc(C(=O)N2CCC3(CCN(Cc4ccc(-c5cc6c(-c7cc(F)cc(NC(=O)c8ccc(C(C)(C)O)cc8F)c7C)ncnc6[nH]5)cc4)CC3)CC2)cc1N1CCC(=O)NC1=O [Compound 4, N-(3-(6-(4-((9-(3-(2,4-Dioxotetrahydropyrimidin-1(2H)-yl)-4-ethoxybenzoyl)-3,9-diazaspiro[5.5]undecan-3-yl)methyl)phenyl)-7H-pyrrolo[2,3-d]pyrimidin-4-yl)-5-fluoro-2-methylphenyl)-2-fluoro-4-(2-hydroxypropan-2-yl)benzamide]	4.69
COc1ccc(C(=O)N2CCC(OC3CCN(CCc4ccc(-c5cc6c(-c7cc(F)cc(NC(=O)c8ccc(C(C)(C)O)cc8F)c7C)ncnc6[nH]5)cc4)CC3)CC2)cc1N1CCC(=O)NC1=O [Compound 34, N-(3-(6-(4-(2-(4-((1-(3-(2,4-Dioxotetrahydropyrimidin-1(2H)-yl)-4-methoxybenzoyl)piperidin-4-yl)oxyl)piperidin-1-yl)ethyl)phenyl)-7H-pyrrolo[2,3-d]pyrimidin-4-yl)-5-fluoro-2-methylphenyl)-2-fluoro-4-(2-hydroxypropan-2-yl)benzamide]	> 10

More lines, in order of falling GI50, values ahead:

GI50 [µM]	SMILES
4.58	Cc1c(NC(=O)c2ccc(C(C)(C)O)cc2F)cc(F)cc1-c1ncnc2[nH]c(-c3ccc(CCN4CCC5(CC4)CCN(C(=O)c4ccc(F)c(N6CCC(=O)NC6=O)c4)CC5)cc3)cc12 [Compound 47, N-(3-(6-(4-(2-(9-(3-(2,4-dioxotetrahydropyrimidin-1(2H)-yl)-4-fluorobenzoyl)-3,9-diazaspiro[5.5]undecan-3-yl)ethyl)phenyl)-7H-pyrrolo[2,3-d]pyrimidin-4-yl)-5-fluoro-2-methylphenyl)-2-fluoro-4-(2-hydroxypropan-2-yl)benzamide]
4.46	COc1ccc(C(=O)N2CCC(CN3CCC(Oc4ccc(-c5cc6c(-c7cc(F)cc(NC(=O)c8ccc(C(C)(C)O)cc8F)c7C)ncnc6[nH]5)cc4)CC3)CC2)cc1N1CCC(=O)NC1=O [Compound 19, N-(3-(6-(4-((1-((1-(3-(2,4-Dioxotetrahydropyrimidin-1(2H)-yl)-4-methoxybenzoyl)piperidin-4-yl)methyl)piperidin-4-yl)oxyl)phenyl)-7H-pyrrolo[2,3-d]pyrimidin-4-yl)-5-fluoro-2-methylphenyl)-2-fluoro-4-(2-hydroxypropan-2-yl)benzamide]
4.11	COc1ccc(C(=O)N2CCN(C(=O)N3CCN(Cc4ccc(-c5cc6c(-c7cc(F)cc(NC(=O)c8ccc(C(C)(C)O)cc8F)c7C)ncnc6[nH]5)cc4)CC3)CC2)cc1N1CCC(=O)NC1=O [Compound 22, N-(3-(6-(4-((4-(4-(3-(2,4-Dioxotetrahydropyrimidin-1(2H)-yl)-4-methoxybenzoyl)piperazine-1-carbonyl)piperazin-1-yl)methyl)phenyl)-7H-pyrrolo[2,3-d]pyrimidin-4-yl)-5-fluoro-2-methylphenyl)-2-fluoro-4-(2-hydroxypropan-2-yl)benzamide]
4.08	Cc1ccc(C(=O)N2CCC3(CCN(Cc4ccc(-c5cc6c(-c7cc(F)cc(NC(=O)c8ccc(C(C)(C)O)cc8F)c7C)ncnc6[nH]5)cc4)CC3)CC2)cc1N1CCC(=O)NC1=O [Compound 27, N-(3-(6-(4-((9-(3-(2,4-Dioxotetrahydropyrimidin-1(2H)-yl)-4-methylbenzoyl)-3,9-diazaspiro[5.5]undecan-3-yl)methyl)phenyl)-7H-pyrrolo[2,3-d]pyrimidin-4-yl)-5-fluoro-2-methylphenyl)-2-fluoro-4-(2-hydroxypropan-2-yl)benzamide]
3.87	COc1ccc(C(=O)N2CCC3(CCN(Cc4ccc(-c5cc6c(-c7cc(F)cc(NC(=O)c8ccc(C(C)(C)O)cc8F)c7C)ncnc6[nH]5)cc4)CC3)CC2)cc1N1CCC(=O)NC1=O [Compound 9, N-(3-(6-(4-((9-(3-(2,4-Dioxotetrahydropyrimidin-1(2H)-yl)-4-methoxybenzoyl)-3,9-diazaspiro[5.5]undecan-3-yl)methyl)phenyl)-7H-pyrrolo[2.3-d]pyrimidin-4-yl)-5-fluoro-2-methylphenyl)-2-fluoro-4-(2-hydroxypropan-2-yl)benzamide]
3.83	Cc1c(NC(=O)c2ccc(C(C)(C)O)cc2F)cc(F)cc1-c1ncnc2[nH]c(-c3ccc(CCN4CCC5(CC4)CCN(C(=O)c4cccc(N6CCC(=O)NC6=O)c4)CC5)cc3)cc12 [Compound 12, N-(3-(6-(4-(2-(9-(3-(2,4-Dioxotetrahydropyrimidin-1(2H)-yl)benzoyl)-3,9-diazaspiro[5,5]undecan-3-yl)ethyl)phenyl)-7H-pyrrolo[2,3-d]pyrimidin-4-yl)-5-fluoro-2-methylphenyl)-2-fluoro-4-(2-hydroxypropan-2-yl)benzamide]
3.43	Cc1c(NC(=O)c2ccc(C(C)(C)O)cc2F)cc(F)cc1-c1ncnc2[nH]c(-c3ccc(COC4CCN(CCC5CCN(C(=O)c6ccc(F)c(N7CCC(=O)NC7=O)c6)CC5)CC4)cc3)cc12 [Compound 6, N-(3-(6-(4-(((1-(2(1-(3-(2,4-dioxotetrahydropyrimidin-1(2H)-yl)-4-fluorobenzoyl)piperidin-4-yl)ethyl)piperidin-4-yl)oxyl)methyl)phenyl)-7H-pyrrolo[2,3-d]pyrimidin-4-yl)-5-fluoro-2-methylphenyl)-2-fluoro-4-(2-hydroxypropan-2-yl)benzamide]
3.05	COc1ccc(C(=O)NCCN2CCC3(CC2)CCN(Cc2ccc(-c4cc5c(-c6cc(F)cc(NC(=O)c7ccc(C(C)(C)O)cc7F)c6C)ncnc5[nH]4)cc2)CC3)cc1N1CCC(=O)NC1=O [Compound 44, N-(3-(6-(4-((9-(2-(3-(2,4-dioxotetrahydropyrimidin-1(2H)-yl)-4-methoxybenzamido)ethyl)-3,9-diazaspiro[5.5]undecan-3-yl)methyl)phenyl)-7H-pyrrolo[2,3-d]pyrimidin-4-yl)-5-fluoro-2-methylphenyl)-2-fluoro-4-(2-hydroxypropan-2-yl)benzamide]
